Data taken from patent US20100155657A1, “AQUEOUS COMPOSITION CONTAINING FLUORINATED SULFONAMIDE AND SULFONAMIDATE COMPOUNDS” (3M Innovative Properties Company, priority 2008, published 2010).

Columns and labels:
[1] = determined experimentally
[2] = calculated neutralization equilibrium constant Kn for deprotonation of sulfonamide with ammonia; format: physicochemical; conditions: for Kn: RfSO2NHX + NH3 -> RfSO2N(-)X + NH4+, pKa of ammonium 9.24 at 25 °C; for K(RfSO2NHX): acid dissociation constant of the sulfonamide, from pKa
Description: The equilibrium between a sulfonamide and its conjugate sulfamidate anion is determined by the both the pKa of the sulfonamide and the pKb (i.e., the pKa of the conjugate acid of the base).
NH3+RfSO2NHX→NH4^++RfSO2N^(−)X
The neutralization equilibrium constant Kn can be expressed as
Kn can also be expressed as: […]

| pKa [1] | Kn [2] | K(RfSO2NHX) [2] | Structure (SMILES) |
| --- | --- | --- | --- |
| 8.15 |  |  | CCNS(=O)(=O)C(F)(F)C(F)(F)C(F)(F)C(F)(F)F [X = CH2CH3] |
|  | 1800 | 1.05 × 10^−6 | NS(=O)(=O)C(F)(F)C(F)(F)C(F)(F)C(F)(F)F [X = H, CF3CF2CF2CF2SO2NH2] |
|  | 52 | 3.01 × 10^−8 | CNS(=O)(=O)C(F)(F)C(F)(F)C(F)(F)C(F)(F)F [X = CH3, CF3CF2CF2CF2SO2NHCH3] |
|  | 467 | 2.69 × 10^−7 | O=S(=O)(NCCO)C(F)(F)C(F)(F)C(F)(F)C(F)(F)F [X = CH2CH2OH, CF3CF2CF2CF2SO2NHCH2CH2OH] |
